Laboratory results from US20250144050A1, “AMINOTHIOL-CONJUGATES, COMPOSITIONS, AND METHODS OF USE THEREOF” (THE BURLINGTON HC RESEARCH GROUP, INC., priority 2021, published 2025).
Like-named read-outs stand apart in the source and are kept apart here.

Tests used:
[1] = mice, cited from earlier work
[2] = test system: C3H/10T1/2 cells; settings: 1 milliM; before, during, and after radiation exposure; cited from earlier work
[3] = injection at 500-910 mg/m^2; cited from earlier work
[4] = some in vitro studies; cited from earlier work
[5] = cited from earlier work
[6] = Children; cited from earlier work
[7] = 400 mg/kg; 206 cGy gamma rays; female mice; cited from earlier work
[8] = test system: Sa-NH sarcoma cells; settings: 50 mg/kg every other day for 6 days; delayed from 12 days; cited from earlier work
[9] = test system: angiostatin; settings: cited from earlier work
[10] = test system: human cancer cell lines; experiment: CyQUANT cell viability assay, 48-hour exposure, panel averages; settings: for GI50: Homo sapiens, 48 h
Procedure: After drug treatments, fluorescence readings from 96-well plates were obtained using the CyQUANT dye and compared to standard curves for each cell line to determine cell viability. […] Trypan blue exclusion was used to estimate cell numbers in a few pilot experiments and was thereafter applied to confirm cell death.
A series of experiments was conducted to assess the relative efficacy of 4SP65, 1LP65, and amifostine as single agents in the same human cancer cell lines. First, the effectiveness of 4SP65 was tested against 15 cancer cell lines derived from seven tissues. […] The effectiveness of 0 to ≤500 μM amifostine was tested in sets of cancer cell lines reported to have either medium, high, or no expression of alkaline phosphatase.
Trans. R Soc. Lond. […] Using cell numbers based on fluorescence measurements and standard curves [time zero, (Tz), control growth, (C), and test growth in the presence of drug at five or more concentration levels (Ti)], the percentage growth was calculated at each drug concentration level. The percentage of growth inhibition was calculated as follows:
The LC50/99 was calculated using Equation 2=−50 and Eq. 2=−99, respectively. […] For NHMECs, the relationships between drug exposure levels and fluorescence units were used to define dose-response metrics. The selectivity index (SI) values for individual drug treatments were calculated as IC50 levels in NHMECs divided by the IC50 values in cancer cell lines.

[11] = test system: radiation-induced tumors; settings: WR2721 plus radiation (87% with radiation alone); cited from earlier work
[12] = test system: mouse splenocytes; settings: cited from earlier work
[13] = test system: MDA-MB-231 cells; settings: cited from earlier work
[14] = test system: SKOV3 ovarian cancer cells; assay type: cell-based
Procedure: (§1) Trypan Blue exclusion was applied as a complementary confirmation probe for cell death.
(§2) Statistical comparisons of differences in individual dose-response metrics between individual/paired drug treatments and various cell lines were conducted using the Student's t-test, with P-values <0.05 considered significant.
(§3) Relative cell growth inhibition values for differing levels each drug alone and in combination were input into SynergyFinder to generated dose-response curves for each drug alone, to produce a dose-response matrix, to visualize the distribution of areas of differing degrees of synergism in a 2-dimension heatmap and 3-dimension volcano plot, and to calculate average and maximum synergy scores in selected human cancer cell lines. […] Synergy scores <10 means that the interaction between two drugs was likely to be antagonistic; scores from −10 to 10 means the interaction between two drugs was likely to be additive; and scores >10 means the interaction between two drugs was likely to be synergistic.

[15] = test system: PPM-Mill malignant mesothelioma cells; assay type: cell-based; settings: PPM-Mill; each drug alone; 48 h
Procedure: as §1, §2, §3

[16] = test system: HMESO-1 malignant mesothelioma cells; assay type: cell-based; settings: HMESO-1; each drug alone; 48 h
Procedure: as §1, §2, §3

[17] = test system: metastatic melanoma; settings: patients with advanced malignant melanoma; cited from earlier work
[18] = test system: TOV21G ovarian cancer cells; assay type: cell-based; settings: TOV21G, 48 h
Procedure: as §1, §2, §3

[19] = test system: A549 NSCLC cells
Procedure: as §1, §2, §3

[20] = test system: NCI-H460 NSCLC cells; assay type: cell-based; settings: NCI-H460; each drug alone; 48 h
Procedure: as §1, §2, §3

[21] = test system: H1975 cells; settings: H1975, each drug alone, 48 h
Procedure: as §1, §2, §3

[22] = cited from earlier work; remark: listed apart in the source
[23] = test system: PC3 cells; settings: cited from earlier work
[24] = each drug alone, 48 h, cisplatin series
[25] = each drug alone, 48 h, gefitinib series

SMILES: NCCCNCCS [WR1065, 2-(3-aminopropyl)aminoethanethiol]
- maximally tolerated dose (MTD) ([1]; i.p.): 432 mg/kg BW
- maximally tolerated dose (MTD) ([1]; p.o.): 720 mg/kg BW
- protection factor [2]: 3.23
- peak plasma level [3]: ~100 µM
- plasma T1/2 [3]: ~0.167 h
- lowest efficacious concentration [4]: 0.4 µM

SMILES: CNCCCNCCCS [WR151326]
- protection factor [2]: 1.8

SMILES: NCCCNCCSP(=O)(O)O [amifostine]
- level with no observable cytotoxicity ([5]; kidney (in vivo)): > 17,000 picomol/10 (6) cells
- level with no observable cytotoxicity ([5]; liver (in vivo)): > 7400 picomol/10 (6) cells
- level with no observable cytotoxicity ([5]; small intestine (in vivo)): > 3000 picomol/10 (6) cells
- single dose with no untoward effects [6]: up to 2700 mg/m2
- extension of total life expectancy [7]: 65 days
- days for tumors to reach ideal size for amputation [8]: 13 days
- change of angiostatin levels ([9]; 200 mg/ml (instead of 50 mg/ml)): did not change angiostatin levels
- increase of serum angiostatin levels ([9]; mouse, in vivo): 4 fold
- GI50 ([10]; read-out: GI50, range, four of 14 cell lines with moderate/high alkaline phosphatase expression, 48 hours): 47 to 81 µM
- GI50 ([10]; read-out: GI50, range, seven of 14 cell lines, 48 hours): 113 to 378 µM
- GI50 ([10]; read-out: exposure failing to induce growth inhibitory effects (GI50), three of 14 cell lines, 48 hours): > 500 µM
- exposure without cytolytic effects (LC50/LC99) ([10]; any of 14 cell lines, 48 hours): > 500 µM
- concentration inducing TGI level effects ([10]; only HCC38 and PC3): > 100 µM
- mice developing tumors [11]: 26%
- reduction of cyclophosphamide-induced HPRT mutations [12]: 8 fold

SMILES: N.N.[Cl][Pt][Cl] [cisplatin, reference compound]
- GI50 [13]: 22.4 µM
- GI50 ([14]; SKOV3, each drug alone, 48 h): 5.3 ± 0.4 µM
- IC50 ([14]; SKOV3, each drug alone, 48 h): 6.7 ± 0.6 µM
- LC99 ([14]; SKOV3, each drug alone, 48 h): ND (>21) μM
- TGI ([14]; SKOV3, each drug alone, 48 h): ND (>21) μM
- GI50 [15]: 27.2 ± 3.4 µM
- IC50 [15]: 40.5 ± 8.1 µM
- LC99 [15]: ND (>100) μM
- TGI [15]: ND (>100) μM
- GI50 [16]: 3 ± 0.4 µM
- IC50 [16]: 8.6 ± 1.1 µM
- LC99 [16]: ND (>15) μM
- TGI [16]: 6.7 ± 0.7 µM
- partial response [17]: 10%
- LC99, amount of each drug in combination ([18]; 4SP65-cisplatin combined): 5.9 µM
- GI50 ([18]; each drug alone): 2.2 ± 0.4 µM
- IC50 ([18]; each drug alone): 3 ± 0.3 µM
- LC99 ([18]; each drug alone): 17.2 µM
- TGI ([18]; each drug alone): 6.7 ± 0.3 µM
- LC99 ([18]; each drug alone, listed as DDP): 17.2 ± 5.2 µM
- reduction in starting cell numbers ([19]; 6 μM cisplatin alone): 56%
- LC99, amount of each drug in combination ([19]; 4SP65-cisplatin combined, 48 h): 7 µM
- GI50 [19, 24]: 3.5 ± 0.7 µM
- IC50 [19, 24]: 4.7 ± 0.8 µM
- LC99 [19, 24]: 24.4 ± 2.6 µM
- TGI [19, 24]: 8.2 ± 1.0 µM
- GI50 [20]: 3.1 ± 0.1 µM
- IC50 [20]: 4 ± 0.1 µM
- LC99 [20]: ND (>15) μM
- TGI [20]: ND (>15) μM

SMILES: COc1cc2ncnc(Nc3ccc(F)c(Cl)c3)c2cc1OCCCN1CCOCC1 [gefitinib, reference compound]
- LC99 [21]: ND (>25) μM
- TGI [21]: > 25 µM
- TGI ([21]; listed as GEF): ND (>25) μM
- LC99 [19, 25]: ND (>25) μM
- TGI [19, 25]: > 25 µM
- TGI ([19]; each drug alone, 48 h, gefitinib series, listed as GEF): ND (>25) μM
- Cmax ([22]; 250 mg daily, cancer patients, read-out: Cmax plasma concentrations): 500 to 1000 nM
- trough levels ([22]; after 3 days of treatment): 0.257 to 4.50 µM
- trough levels ([22]; after 8 days of treatment): 0.282 to 6.55 µM
- elimination half-life ([22]; in vivo): 48 h

SMILES: CC(=O)O[C@H]1C(=O)[C@@]2(C)[C@H]([C@H](OC(=O)c3ccccc3)[C@]3(O)C[C@H](OC(=O)[C@H](O)[C@@H](NC(=O)c4ccccc4)c4ccccc4)C(C)=C1C3(C)C)[C@]1(OC(C)=O)CO[C@@H]1C[C@@H]2O [paclitaxel, reference compound]
- fold lower dose than 1LP65 at the GI50 level ([14]; SKOV3 cells): 77 fold
- GI50 [23]: 36.4 µM
